{
  "source": "patent US20140018375A1",
  "about": "“BIOLOGICAL MARKERS PREDICTIVE OF ANTI-CANCER RESPONSE TO EPIDERMAL GROWTH FACTOR RECEPTOR KINASE INHIBITORS” (priority 2005, published 2014)",
  "key": {"[1]": {"tested_on": "H292", "assay": "Cell-Titer Glo cell viability assay, H292", "type": "cell-based, human", "method": "(§1) On day 1, NSCLC cells were plated 3-5×10^4 cells/well in 96 well plates in their normal serum-containing media. […] Manufacturers instructions were followed for the assay. Experiments were conducted in triplicate to at least an n=3. Data was normalized as a percentage inhibition compared to DMSO only control wells and concentration-response analysis was performed using Prizm graphing software.\n(§2) The concentration response curves were analyzed in two ways."}, "[2]": {"tested_on": "H441", "assay": "Cell-Titer Glo cell viability assay, H441", "type": "cell-based, human", "method": "as §1, §2"}, "[3]": {"tested_on": "MiaPaca2", "assay": "growth inhibition of pancreatic cell line in vitro, MiaPaca2", "type": "cell-based", "source_text": "(§3) We next extended these studies to ask whether these observations would be applicable to other cancer cell types."}, "[4]": {"tested_on": "H292 xenograft", "assay": "NSCLC xenograft tumor growth inhibition, H292", "type": "in vivo, mouse", "details": "oral gavage once a day for 14 days", "method": "(§4) Female CD-1 nu/nu mice (Charles River Laboratories) were implanted with harvested NSCLC tumor cells in a single subcutaneous site on the flank of the mice in the axillary region. Tumors were allowed to grow to 200±50 mm^3, at which time the animals were sorted into treatment groups of 8 animals per group based on weight (±1 g body weight) and tattooed on the tail for permanent identification. Tumor volumes and body weights were determined twice weekly. The tumor volume was determined by measuring in two directions with vernier calipers and calculated using the formula: Tumor volume=(length×width^2)/2. The data were plotted as the % change in mean values of tumor volume and body weight for each group. […]. Tumor growth inhibition studies were dosed by oral gavage once a day for 14 days. Pharmacodynamic studies were dosed by oral gavage for 1-3 days with tumors from 4 control and 4 TARCEVA™ treated animals harvested and snap frozen in liquid nitrogen 4 hours after dosing on Days 1, 2 and 3."}, "[5]": {"tested_on": "H460 xenograft", "assay": "NSCLC xenograft tumor growth inhibition, H460", "type": "in vivo, mouse", "details": "oral gavage once a day for 14 days", "method": "as §4"}, "[6]": {"tested_on": "SW1573", "assay": "Cell-Titer Glo cell viability assay, SW1573", "type": "cell-based, human", "method": "as §1, §2"}, "[7]": {"tested_on": "H322", "assay": "Cell-Titer Glo cell viability assay, H322", "type": "cell-based, human", "method": "as §1, §2"}, "[8]": {"tested_on": "H1703", "assay": "Cell-Titer Glo cell viability assay, H1703", "type": "cell-based, human", "details": "for EC50: Homo sapiens", "method": "as §1, §2"}, "[9]": {"tested_on": "H441 xenograft", "assay": "NSCLC xenograft tumor growth inhibition, H441", "type": "in vivo, mouse", "details": "oral gavage once a day for 14 days", "method": "as §4"}, "[10]": {"tested_on": "BxPC3", "assay": "growth inhibition of pancreatic cell line in vitro, BxPC3", "type": "cell-based", "source_text": "as §3"}, "[11]": {"tested_on": "H358 xenograft", "assay": "NSCLC xenograft tumor growth inhibition, H358", "type": "in vivo, mouse", "details": "oral gavage once a day for 14 days", "method": "as §4"}, "[12]": {"tested_on": "H460", "assay": "Cell-Titer Glo cell viability assay, H460", "type": "cell-based, human", "details": "for EC50: Homo sapiens", "method": "as §1, §2"}, "[13]": {"tested_on": "NSCLC cells", "assay": "anti-phosphotyrosine capture and LC-MS/MS (iTRAQ) after erlotinib exposure", "type": "cell-based, human", "method": "Anti-phosphotyrosine immunoaffinity resins were prepared by covalent coupling to a solid support by standard methods. Freshly prepared immunoaffinity resins were used for each biological experiment to maximize binding and reduce carryover. Briefly, anti-phosphotyrosine antibodies were crosslinked to solid-support and non-covalently bound IgG removed by low pH elution. […] Proteins isolated by anti-phosphotyrosine affinity selection were measured by iTRAQ labeling of tryptic peptides as previously described (Ross et al, (2004) Mol Cell Proteomics 3(12) 1154-1169; Haley et al., 2004). Peptide masses and sequence information were determined by electrospray LC-MS/MS and database searching. Peptides with confidence levels of >=90% with scores of >=20 were considered, after which spectra were inspected manually. […]. Proteins were clustered by temporal log2 protein expression ratios using Euclidian hierarchical methods and self-organizing maps.\nProteins associated with survival signaling and epithelial-mesenchymal cell phenotypes were isolated and measured using multiple experimental approaches, including mass spectrometry. Individual protein abundance, or extent of phosphorylation on tyrosine residues, was compared between different NSCLC tumor lines. Mass spectrometry approaches additionally included cellular fractionation, phosphotyrosine protein-capture and phosphopeptide-capture using four NSCLC model cell lines. The NSCLC lines were chosen to reflect a range of sensitivities to pharmacological EGFR inhibition both in vitro and in xenografts. These NSCLC lines also span both epithelial and mesenchymal-like tumor phenotypes arising from EMT-like transitions occurring during tumor progression. Two MS quantitation approaches were pursued. First, between-cell comparisons were performed where membrane-particulate and cytosolic fractions were isolated and differences in protein abundance measured. In both cases the iTRAQ peptide labeling method was used to allow relative quantitation of proteins isolated under the different biological conditions. […]. Protein samples were proteolytically cleaved with trypsin, separately labeled with isobaric stable isotope mass labels (iTRAQ; Ross et al., 2005; Petti et al. 2005), combined and subjected to LC-MS/MS. Protein identification criteria conformed to the guidelines proposed by Bradshaw et al. (Bradshaw R. A., Burlingame A. L., Carr S., and Aebersold R. (2006) Mol Cell Proteomics 5:787-788)."}, "[14]": {"tested_on": "Calu6", "assay": "Cell-Titer Glo cell viability assay, Calu6", "type": "cell-based, human", "details": "for EC50: Homo sapiens", "method": "as §1, §2"}, "[15]": {"tested_on": "A549 xenograft", "assay": "NSCLC xenograft tumor growth inhibition, A549", "type": "in vivo, mouse", "details": "oral gavage once a day for 14 days", "method": "as §4"}, "[16]": {"tested_on": "H358", "assay": "Cell-Titer Glo cell viability assay, H358", "type": "cell-based, human", "method": "as §1, §2"}, "[17]": {"tested_on": "Calu6 xenograft", "assay": "NSCLC xenograft tumor growth inhibition, Calu6", "type": "in vivo, mouse", "details": "oral gavage once a day for 14 days", "method": "as §4"}, "[18]": {"tested_on": "A549", "assay": "Cell-Titer Glo cell viability assay, A549", "type": "cell-based, human", "method": "as §1, §2"}},
  "note": "“Also recorded” adds a separate entry of the source. Read-outs that look alike come from different tables or passages of the source.",
  "data": [
    {"smiles": "C#Cc1cccc(Nc2ncnc3cc(OCCOC)c(OCCOC)cc23)c1", "note": "[erlotinib, [6,7-bis(2-methoxyethoxy)-4-quinazolin-4-yl]-(3-ethynylphenyl)amine]", "values": [
      {"measurement": "Max. Inhibition (%)", "setting": "[1]", "result": 69, "unit": "%"},
      {"measurement": "Classification of sensitivity to erlotinib-mediated growth inhibition", "setting": "[1]; H292, in vitro and in xenografts", "result": "Sensitive"},
      {"measurement": "EC50", "setting": "[1]; Homo sapiens, NCI-H292, 72 h, read-out: EC50 Half Maximal", "result": 100, "unit": "nM"},
      {"measurement": "Max. Inhibition (%)", "setting": "[2]", "result": 55, "unit": "%"},
      {"measurement": "Classification of sensitivity to erlotinib-mediated growth inhibition", "setting": "[2]; H441, in vitro and in xenografts", "result": "Sensitive; also recorded: intermediate"},
      {"measurement": "EC50", "setting": "[2]; Homo sapiens, NCI-H441, 72 h, read-out: EC50 Half Maximal", "result": 2000, "unit": "nM"},
      {"measurement": "sensitivity to growth inhibition by erlotinib", "setting": "[3]", "result": "relatively insensitive"},
      {"measurement": "% TGI Day 15", "setting": "[4]", "result": 85, "unit": "%"},
      {"measurement": "% TGI Day 15", "setting": "[5]", "result": 6, "unit": "%"},
      {"measurement": "Max. Inhibition (%)", "setting": "[6]", "result": 25, "unit": "%"},
      {"measurement": "EC50", "setting": "[6]; Homo sapiens, SW1573, 72 h, read-out: EC50 Half Maximal", "result": 9, "unit": "µM"},
      {"measurement": "Classification of sensitivity to erlotinib-mediated growth inhibition", "setting": "[6]; SW1573", "result": "relatively insensitive"},
      {"measurement": "Max. Inhibition (%)", "setting": "[7]", "result": 80, "unit": "%"},
      {"measurement": "Classification of sensitivity to erlotinib-mediated growth inhibition", "setting": "[7]; H322", "result": "Sensitive"},
      {"measurement": "EC50", "setting": "[7]; Homo sapiens, NCI-H322, 72 h, read-out: EC50 Half Maximal", "result": 400, "unit": "nM"},
      {"measurement": "Max. Inhibition (%)", "setting": "[8]", "result": 30, "unit": "%"},
      {"measurement": "Classification of sensitivity to erlotinib-mediated growth inhibition", "setting": "[8]; H1703", "result": "relatively insensitive"},
      {"measurement": "EC50", "setting": "[8]; NCI-H1703, 72 h, read-out: EC50 Half Maximal", "result": 7, "unit": "µM"},
      {"measurement": "EC50", "setting": "[8]; NCI-H1703, read-out: EC50, growth inhibition in vitro", "result": "> 10", "unit": "µM"},
      {"measurement": "% TGI Day 15", "setting": "[9]", "result": 60, "unit": "%"},
      {"measurement": "sensitivity to growth inhibition by erlotinib", "setting": "[10]", "result": "sensitive"},
      {"measurement": "% TGI Day 15", "setting": "[11]", "result": 25, "unit": "%"},
      {"measurement": "Max. Inhibition (%)", "setting": "[12]", "result": 30, "unit": "%"},
      {"measurement": "Classification of sensitivity to erlotinib-mediated growth inhibition", "setting": "[12]; H460, in vitro and in xenografts", "result": "relatively insensitive"},
      {"measurement": "EC50", "setting": "[12]; NCI-H460, 72 h, read-out: EC50 Half Maximal", "result": 5, "unit": "µM"},
      {"measurement": "EC50", "setting": "[12]; NCI-H460, read-out: EC50, growth inhibition in vitro", "result": "> 10", "unit": "µM"},
      {"measurement": "phosphocapture of the p21-activated kinase PAK2", "setting": "[13]; H1703 cells, 1, 4 and 24 hours", "result": "stimulated at all time points"},
      {"measurement": "regulation of Actin-like protein-6A and β-actin", "setting": "[13]; cells with an epithelial phenotype, within 1 hour of erlotinib exposure (1 μM)", "result": "upregulation"},
      {"measurement": "regulation of α- and γ-actins and vimentin phosphoproteins", "setting": "[13]; mesenchymal-like NSCLC cells, within 1 hour of erlotinib exposure (1 μM)", "result": "Down regulation"},
      {"measurement": "phosphocapture of Rho-GEF7", "setting": "[13]; mesenchymal-like cells", "result": "significant erlotinib-dependent increase"},
      {"measurement": "tyrosine phosphorylation for Erk2, ubiquitin and the tyrosine phosphatases SHP-2 and BDP-18", "setting": "[13]; primarily associated with an epithelial cell state", "result": "downregulation"},
      {"measurement": "Max. Inhibition (%)", "setting": "[14]", "result": 46, "unit": "%"},
      {"measurement": "Classification of sensitivity to erlotinib-mediated growth inhibition", "setting": "[14]; Calu6, in vitro and in xenografts", "result": "relatively insensitive"},
      {"measurement": "EC50", "setting": "[14]; Calu-6, 72 h, read-out: EC50 Half Maximal", "result": "> 10", "unit": "µM"},
      {"measurement": "EC50", "setting": "[14]; Calu-6, read-out: EC50, growth inhibition in vitro", "result": "> 10", "unit": "µM"},
      {"measurement": "% TGI Day 15", "setting": "[15]", "result": 49, "unit": "%"},
      {"measurement": "Max. Inhibition (%)", "setting": "[16]", "result": 72, "unit": "%"},
      {"measurement": "Classification of sensitivity to erlotinib-mediated growth inhibition", "setting": "[16]; H358, in vitro and in xenografts", "result": "Sensitive"},
      {"measurement": "EC50", "setting": "[16]; Homo sapiens, NCI-H358, 72 h, read-out: EC50 Half Maximal", "result": 600, "unit": "nM"},
      {"measurement": "% TGI Day 15", "setting": "[17]", "result": 0, "unit": "%"},
      {"measurement": "Max. Inhibition (%)", "setting": "[18]", "result": 30, "unit": "%"},
      {"measurement": "Classification of sensitivity to erlotinib-mediated growth inhibition", "setting": "[18]; A549, in vitro and in xenografts", "result": "intermediate sensitivity"},
      {"measurement": "EC50", "setting": "[18]; Homo sapiens, A549, 72 h, read-out: EC50 Half Maximal", "result": 5, "unit": "µM"}
    ]}
  ]
}
